Legend:
3T3-L1 cell line = experiment: Cell viability assay (PrestoBlue, metabolic function), 3T3-L1; type: cell-based, mouse; settings: 24 h, mean
Method: Prior to investigating the biological activity and molecular characteristics of the test compounds in vitro, a comprehensive cytotoxicity screening was performed using HepG2 and 3T3-L1 cell lines. Two complementary assays were applied: one based on the quantification of adenylate kinase release as an indicator of cell membrane damage, and another relying on resazurin reduction to assess cellular metabolic activity. These complementary assays enable sensitive and reliable detection of cytotoxic effects across diverse cell types. This preliminary assessment was carried out to ensure that subsequent functional analyses would not be confounded by nonspecific cytotoxic effects.
Cell viability was measured using PrestoBlue reagent (Thermo Fisher Scientific, Waltham, MA, USA), following the manufacturer’s instructions. After 24 h of compound treatment, PrestoBlue reagent was added to each well at 10% of the remaining medium volume. The plate was incubated at 37 °C for 15 min, and fluorescence was measured using the POLARstar Omega plate reader (excitation 530 nm, emission 580 nm). Results were expressed as a percentage of viable cells relative to the DMSO-treated control.

human TAAR1 = target: T1, human TAAR1 (Homo sapiens, UniProt Q96RJ0); experiment: TAAR1 agonist activity, Hit Hunter cAMP assay; type: cell-based
T1 sequence (Q96RJ0 1-339): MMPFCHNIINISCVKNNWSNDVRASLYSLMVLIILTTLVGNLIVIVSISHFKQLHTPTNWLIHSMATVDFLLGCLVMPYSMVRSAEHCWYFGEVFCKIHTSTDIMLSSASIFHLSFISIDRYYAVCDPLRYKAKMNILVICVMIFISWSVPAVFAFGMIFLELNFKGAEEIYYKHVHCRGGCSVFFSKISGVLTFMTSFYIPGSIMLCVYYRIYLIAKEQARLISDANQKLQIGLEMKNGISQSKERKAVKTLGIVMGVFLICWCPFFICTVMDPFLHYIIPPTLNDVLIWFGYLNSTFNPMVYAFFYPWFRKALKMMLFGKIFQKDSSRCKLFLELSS
Method: The intrinsic activity of the TAAR1 receptor will be assessed according to the manufacturer’s protocol, using the Hit Hunter® cAMP assay by DiscoverX. This assay enables monitoring of GPCR activation in cells stably expressing TAAR1 by measuring changes in the level of the secondary messenger, cAMP. The cAMP Hunter cell lines were cultured from frozen stocks following standard procedures. Cells were plated in white-walled 384-well microplates at a total volume of 20 µL per well and incubated at 37 °C for the required period before analysis. To assess agonist activity, cells were exposed to the test compound to trigger a response. The culture medium was then removed and replaced with 15 µL of a 2:1 mixture of HBSS and 10 mM Hepes containing the cAMP XS+ antibody reagent. Sample stocks were diluted to prepare a 4× concentration in assay buffer. Subsequently, 5 µL of the 4× sample was added to each well, and the plates were incubated at either 37 °C or room temperature for 30 or 60 min. The vehicle was used at a concentration of 1%. After incubating the compounds for the required time, the assay signal was produced by adding 20 µL of the cAMP XS+ ED/CL lysis cocktail and incubating for one hour. This was followed by a three-hour incubation with 20 µL of the cAMP XS+EA reagent at room temperature. After signal development, the microplates were read using a PerkinElmer Envision Reader to detect chemiluminescence.

[1] = target: T2, 5-HT2C serotoninergic receptor (Homo sapiens, UniProt P28335); experiment: 5-HT2C intrinsic activity, agonist mode (AequoScreen calcium mobilization); type: cell-based; settings: n.a. = no activity at 10–5 M
T2 sequence (P28335 33-458): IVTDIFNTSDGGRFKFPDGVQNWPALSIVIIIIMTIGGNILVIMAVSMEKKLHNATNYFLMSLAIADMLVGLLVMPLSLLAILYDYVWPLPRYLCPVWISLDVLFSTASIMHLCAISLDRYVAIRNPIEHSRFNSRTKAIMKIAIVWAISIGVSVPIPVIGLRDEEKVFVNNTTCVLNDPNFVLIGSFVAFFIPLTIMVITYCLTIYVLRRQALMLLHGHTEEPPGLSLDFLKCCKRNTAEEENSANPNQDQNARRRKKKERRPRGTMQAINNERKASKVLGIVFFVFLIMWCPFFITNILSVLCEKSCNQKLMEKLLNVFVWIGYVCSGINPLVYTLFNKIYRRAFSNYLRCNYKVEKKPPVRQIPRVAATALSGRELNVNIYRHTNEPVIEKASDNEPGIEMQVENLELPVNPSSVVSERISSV
Method: The determination of intrinsic activity will be performed in accordance with the manufacturer’s Aequoscreen methodology—Perkin Elmer.
The cell density in the 96-well format was 5000 cells per well. Cell preparation for the assay was performed according to the manufacturer’s instructions for AequoScreen (PerkinElmer, Waltham, MA, USA). […] The cells suspension was applied onto the ligands with the injectors of the POLARstar optima reader (BMG Labtech, Ortenberg, Germany). […] The concentration and dilution series having four replicates were prepared as instructed in the AequoScreen Starter Kit Manual (PerkinElmer, Waltham, MA, USA). The wells received cell injections along with either the standard agonist or the compounds being evaluated, while the POLARstar optima reader documented the emitted light over a duration of 20 s. In the antagonist evaluation, cells were administered (50 μL) into the assay plate alongside antagonist solutions (50 μL).

Structure (SMILES): [H]/N=C(\N)NN=Cc1c(Cl)cncc1Cl [JP-14, (E)-2-((3,5-Dichloropyridin-4-yl)Methylene)Hydrazine-1-Carboximidamide]
- cellular metabolic function, percentage relative to control (live cells) (3T3-L1 cell line; Table S5, 0.1 μM): 87%
- cellular metabolic function, percentage relative to control (live cells) (3T3-L1 cell line; Table S5, 1 μM): 85%
- cellular metabolic function, percentage relative to control (live cells) (3T3-L1 cell line; Table S5, 10 μM): 82%
- cellular metabolic function, percentage relative to control (live cells) (3T3-L1 cell line; Table S5, 50 μM): 80%
- cellular metabolic function, percentage relative to control (live cells) (3T3-L1 cell line; Table S5, 100 μM): 51%
- maximum cell stimulation (cAMP level) compared with the highest concentration of tyramine (human TAAR1; TAAR1-expressing cells): about twice as high
- EC50 (human TAAR1; cAMP accumulation, n.a. = no activity at 10–5 M, read-out: TAAR1 Ago EC50): 11.3 ± 1.4 µM
- 5-HT2C Ago EC50 [1]: did not exhibit any measurable agonistic or antagonistic activity
